Results on 13 compounds are retold here after ChEMBL document CHEMBL1132846, “Synthesis and biological evaluation of highly potent analogues of epothilones B and D” (Bioorg Med Chem Lett, 2000).

Assay [1] relates to KB 3-1. Description: Concentration required to inhibit the growth of paclitaxel-sensitive human epidermoid carcinoma cells KB-31 by 50 percent (72 hr exposure). It counts as functional, cell-based. Conditions: KB 3-1, 72 h.
In assay [2] the test system is KB. Description: Concentration required to inhibit the growth of paclitaxel-resistant human epidermoid carcinoma cells KB-8511 by 50 percent (72 hr exposure). Type of assay: functional, cell-based.
The species entered for assay [3] is Sus scrofa. Put plainly: Induction of polymerization of porcine brain-derived microtubule protein by 2 uM epothilone B. It counts as functional.
The species entered for assay [4] is Sus scrofa. Description: Concentrations required to induce 50 percent polymerization of porcine brain-derived micro-tubule protein. It counts as functional.

SMILES strings stand for the structures.

What is called IC50 is the concentration that inhibits the measured activity by half. A high value points to weaker potency. In the case of `C[C@H]1CCC[C@@]2(C)O[C@H]2C[C@@H](c2ccc3cccnc3c2)OC(=O)C[C@H](O)C(C)(C)C(=O)[C@H](C)[C@H]1O`, the IC50 was determined as 0.11 nM in assay [1] and 0.1 nM in assay [2]. In assay [3], the Tubulin polymerization was 78%.
As to `Cc1nc2cc([C@@H]3C[C@@H]4O[C@]4(C)CCC[C@H](C)[C@H](O)[C@@H](C)C(=O)C(C)(C)[C@@H](O)CC(=O)O3)ccc2n1C`, the IC50 amounted to 0.14 nM in assay [1] and 0.38 nM in assay [2]. This compound gave a Tubulin polymerization in assay [3] of 99%.
Take `C/C1=C/C[C@@H](c2ccc3cccnc3c2)OC(=O)C[C@H](O)C(C)(C)C(=O)[C@H](C)[C@@H](O)[C@@H](C)CCC1`: the IC50 was determined as 0.59 nM in assay [1] and 0.38 nM in assay [2]. Further, in assay [3], the Tubulin polymerization was determined as 90%.
The term EC50 denotes the concentration at which the effect is half-maximal. The low end stands for greater potency, the high end for weaker potency. Consider `C/C1=C/C[C@@H](c2ccc3sc(C)nc3c2)OC(=O)C[C@H](O)C(C)(C)C(=O)[C@H](C)[C@@H](O)[C@@H](C)CCC1`, for which the IC50 was 0.45 nM in assay [1] and 0.23 nM in assay [2]. Moreover, the midpoint of the response in assay [4], the EC50, lay at 930 nM. Also, in assay [3], the Tubulin polymerization is 76%.
Regarding `Cc1nc2cc([C@@H]3C[C@@H]4O[C@]4(C)CCC[C@H](C)[C@H](O)[C@@H](C)C(=O)C(C)(C)[C@@H](O)CC(=O)O3)ccc2s1`, the IC50 is 0.13 nM in assay [1] and 0.09 nM in assay [2]. In addition, in assay [3], the Tubulin polymerization was found to be 83%.
For `C/C1=C/C[C@@H](c2ccc3c(c2)ncn3C)OC(=O)C[C@H](O)C(C)(C)C(=O)[C@H](C)[C@@H](O)[C@@H](C)CCC1`, in that order: 0.46 nM, 0.91 nM and 86%.
As to `C/C(=C\c1ccccn1)[C@@H]1C[C@@H]2O[C@]2(C)CCC[C@H](C)[C@H](O)[C@@H](C)C(=O)C(C)(C)[C@@H](O)CC(=O)O1`, the IC50 in assay [1] and in assay [2] was 0.3 nM each time.
With `C/C1=C/C[C@@H](c2ccc3c(c2)nc(C)n3C)OC(=O)C[C@H](O)C(C)(C)C(=O)[C@H](C)[C@@H](O)[C@@H](C)CCC1`, the IC50 in assay [1] was found to be 0.21 nM; in assay [2], 0.73 nM. Moreover, the Tubulin polymerization in assay [3] is listed as 94%.
The corresponding values for `C[C@H]1CCC[C@@]2(C)O[C@H]2C[C@@H](c2ccc3c(c2)ncn3C)OC(=O)C[C@H](O)C(C)(C)C(=O)[C@H](C)[C@H]1O` are 0.13 nM, 0.46 nM and 97%.
As to `C/C(=C\c1csc(C)n1)[C@@H]1C[C@@H]2O[C@@H]2CCC[C@H](C)[C@H](O)[C@@H](C)C(=O)C(C)(C)[C@@H](O)CC(=O)O1` [EPOTHILONE A], the IC50 in assay [1] was 2.15 nM; in assay [2], 1.91 nM. In addition, the EC50 in assay [4] was found to be 1120 nM. Besides, in assay [3], the Tubulin polymerization is 69%.
The corresponding values for `C/C1=C/C[C@@H](/C(C)=C/c2csc(C)n2)OC(=O)C[C@H](O)C(C)(C)C(=O)[C@H](C)[C@@H](O)[C@@H](C)CCC1` [EPOTHILONE D] are 2.7 nM, 1.44 nM, 880 nM and 83%.
Turning to `CC(=O)O[C@H]1C(=O)[C@@]2(C)[C@H]([C@H](OC(=O)c3ccccc3)[C@]3(O)C[C@H](OC(=O)[C@H](O)[C@@H](NC(=O)c4ccccc4)c4ccccc4)C(C)=C1C3(C)C)[C@]1(OC(C)=O)CO[C@@H]1C[C@@H]2O` [PACLITAXEL], the IC50 in assay [1] turned out to be 2.92 nM; in assay [2], 626 nM. Moreover, the Tubulin polymerization in assay [3] came out at 49%.
Consider `C/C(=C\c1csc(C)n1)[C@@H]1C[C@@H]2O[C@]2(C)CCC[C@H](C)[C@H](O)[C@@H](C)C(=O)C(C)(C)[C@@H](O)CC(=O)O1` [PATUPILONE], for which the IC50 in assay [1] turned out to be 0.19 nM; in assay [2] it was 0.18 nM. In assay [4], this compound had an EC50 of 670 nM. For the same compound, in assay [3], the Tubulin polymerization is given as 90%.
